Results as given in patent US11458189B2, “Cytoprotective drugs” (BALMES TRANSPLANTATION, priority 2017, dated 2022).
Starred links: 1 amine or outer side, 2 acyl side, 3 side chain; linkers in the order of their positions; H or OH if unused. Positions of bridges follow the written chain, without caps; N, C: chain ends. Non-standard residues stand in square brackets, D forms with d. Residues, ends and D or L forms follow the SMILES beside them. ξ: configuration not given here. *: point of attachment. hTyr(3S-OH,4S-OH,3'-OSO3H) = N[C@H](C(=O)O)[C@H](O)[C@@H](O)c1ccc(O)c(OS(=O)(=O)O)c1; pTerphenylCO(4''-OnC5H11) = CCCCCOc1ccc(-c2ccc(-c3ccc(C(=O)*)cc3)cc2)cc1; Orn(4R-OH,5R-OH) = O=C([C@H](C[C@@H](O)[C@@H](O)N[*:3])N[*:1])[*:2]; hTyr(3S-OH,4S-OH) = N[C@H](C(=O)O)[C@H](O)[C@@H](O)c1ccc(O)cc1; Pro(3S-OH,4S-Me) = C[C@H]1CN[C@H](C(=O)O)[C@H]1O; X1 = CCCCCOc1ccc(-c2cc(-c3ccc(C(=O)*)cc3)no2)cc1; Gln(3R-OH) = NC(=O)C[C@@H](O)[C@H](N)C(=O)O; ξPro(4R-OH) = O=C(O)C1C[C@@H](O)CN1; Hyp = O=C(O)[C@@H]1C[C@@H](O)CN1

Tested on: Sprague Dawley rats
Experiment: Survival in acute renal failure model (unilateral renal ischemia-reperfusion with contralateral nephrectomy)
Type: in vivo, rat
Conditions: up to 7 days after reperfusion, control group 29%
Method: The protocol is similar to the one described by Narayan P et al, Am J Physiol Renal Physiol, 311(2):F352-61, 2016 and was approved by an ethics committee. In summary, general anesthesia is induced in male Sprague Dawley rats (250-300 g) using sodium pentobarbital (60 mg/kg, ip) instead of ketamine/xylazine in the protocol described by Narayan P et al, Am J Physiol Renal Physiol, 311 (2): F352-61, 2016. A skin incision is made on the dorsal surface and the left kidney is exposed by incisions on the flank. The left renal pedicle is then isolated and clamped for 60 minutes using atraumatic vascular clamps. The kidneys are replaced in the abdominal cavity to maintain temperature and the incision is covered with gauze soaked in 0.9% saline. After the ischemia time (60 minutes), the clamps are released to begin reperfusion. Reperfusion is monitored (kidney color change) for 1 to 2 minutes and physiological saline (1 mL) is administered to prevent dehydration. Next, a right kidney nephrectomy is performed and the incisions are closed with sutures. The animals are kept at approximately 37° C. using a thermoregulated system during the operation. Buprenorphine (0.2 mg/kg sc) is administered before the animals are returned to their cages and once a day until 4 days after reperfusion. […]
The compounds Micafungin (0.25 mg/kg), Anidulafungin (0.35 mg/kg) or the combination of the compounds Micafungin (0.25 mg/kg) and Allopurinol (3 mg/kg) are administered solubilized in physiological saline as a single intravenous injection into the tail vein 60 (±15) minutes before the onset of ischemia. The volume of administration of the compounds is determined on the basis of the body weight (2 mL/kg) of each animal. […]
For each experiment the curve of the number of surviving animals versus the number of days post-ischemia-reperfusion (Kaplan-Meier curve) is shown. The x-axis is graduated from the first day =0 to the seventh day =6 The y-axis is graduated from 0% to 100% of the initial population of the analyzed group. […]

SMILES	Surviving animals at end of Kaplan-Meier curve (% of initial population of the group) (Anidulafungin 0.35 mg/kg single iv injection 60 min before ischemia)	Surviving animals at end of Kaplan-Meier curve (% of initial population of the group) (Micafungin 0.25 mg/kg single iv injection 60 min before ischemia)
CCCCCOc1ccc(-c2ccc(-c3ccc(C(=O)N[C@H]4C[C@@H](O)[C@@H](O)NC(=O)[C@@H]5[C@@H](O)[C@@H](C)CN5C(=O)[C@H]([C@@H](C)O)NC(=O)[C@H]([C@H](O)[C@@H](O)c5ccc(O)cc5)NC(=O)C5C[C@@H](O)CN5C(=O)[C@H]([C@@H](C)O)NC4=O)cc3)cc2)cc1 (stereo partly drawn) [Anidulafungin] ({pTerphenylCO(4''-OnC5H11)}-[Orn(4R-OH,5R-OH)]T[ξPro(4R-OH)][hTyr(3S-OH,4S-OH)]T[Pro(3S-OH,4S-Me)]; lactam 1-C)	75%	–
CCCCCOc1ccc(-c2cc(-c3ccc(C(=O)N[C@H]4C[C@@H](O)[C@@H](O)NC(=O)[C@@H]5[C@@H](O)[C@@H](C)CN5C(=O)[C@H]([C@H](O)CC(N)=O)NC(=O)[C@H]([C@H](O)[C@@H](O)c5ccc(O)c(OS(=O)(=O)O)c5)NC(=O)[C@@H]5C[C@@H](O)CN5C(=O)[C@H]([C@@H](C)O)NC4=O)cc3)no2)cc1 [Micafungin, {5-[(1S,2S)-2-[(3S,6S,9S,11R,15S,18S,20R,21R,24S,25S,26S)-3-[(1R)-2-carbamoyl-1-hydroxyethyl]-11,20,21,25-tetrahydroxy-15-[(1R)-1-hydroxyethyl]-26-methyl-2,5,8,14,17,23-hexaoxo-18-[(4-{5-[4-(pentyloxy)phenyl]-1,2-oxazol-3-yl}benzene)amido]-1,4,7,13,16,22-hexaazatricyclo[22.3.0.0]heptacosan-6-yl]-1,2-dihydroxyethyl]-2-hydroxyphenyl}oxidanesulfonic acid] (X1-[Orn(4R-OH,5R-OH)]T[Hyp][hTyr(3S-OH,4S-OH,3'-OSO3H)][Gln(3R-OH)][Pro(3S-OH,4S-Me)]; lactam 1-C)	–	67%
